Key:
[1] = Biological activity after removal of moieties of lipid X
[2] = Storage stability of lipid X stock solutions; assay type: physicochemical; conditions: stock solutions 5-10 mg/ml stored frozen at -20° C.
Experimental: (§1) Preparation of E. coli lipid X. The 2,3-diacylglucosamine 1-phosphate (E. coli lipid X) was isolated from E. coli strain MN7 (ATCC #39328) as described previously (9). Lipid X obtained in this manner is a solid white powder. Stock solutions (1-10 mg/ml) are usually prepared in aqueous 1 mM EDTA titrated to pH 8 with Tris-free base. Other monovalent counter ions, such as (NH4)^+, Na^+, K^+, etc., may also be used, but divalent cations such as Mg^++ and Ca^++ cause the lipid to precipitate. […] In experiments involving the use of mice, solid lipid X was first dissolved in 0.9% saline (instead of water) and titrated with Tris-free base to pH 8 in the same manner.

sheep [3] = assay: Hemodynamic response and toxicity of lipid X in sheep; assay type: in vivo; conditions: 40 sheep injected with lipid X
Experimental: The hemodynamic response of sheep to lipid X has been studied (18). Essentially, the conclusions are that: 1) lipid X (40 μg/kg cumulative dose) causes a transient (3-5 min) increase in pulmonary arterial pressure, that may be attributed to prostaglandin release, or stimulated synthesis. […] The only significant symptoms observed after injection of lipid X alone are transient lethargy and shortness of breath (15-30 min), without significant distress or obvious adverse long-term consequences.
A period of transient pulmonary hypertension and slight short ness of breath subsides after 30 minutes. About 30 sheep were examined by Burhop with regard to lipid X toxicity.

B cell = conditions: cited from earlier work
sheep [4] = assay: Protection of sheep by lipid X against lethal effects of intravenous lipopolysaccharide; assay type: in vivo
Experimental: Preparation of E. coli lipid X. The 2,3-diacylglucosamine 1-phosphate (E. coli lipid X) was isolated from E. coli strain MN7 (ATCC #39328) as described previously (9). […] Stock solutions (1-10 mg/ml) are usually prepared in aqueous 1 mM EDTA titrated to pH 8 with Tris-free base. […] In experiments involving the use of mice, solid lipid X was first dissolved in 0.9% saline (instead of water) and titrated with Tris-free base to pH 8 in the same manner.
(§2) Stock solutions of 5 mg/ml were prepared in sterile 0.9% saline.
(§3) Experimental Animals. Eight week old mice (strain C57BL/10) were purchased from Jackson Laboratories, Bar Harbor, ME. Mixed bred sheep weighing 30-70 kg were obtained from the University of Wisconsin Experimental Farms. Sheep were prepared as follows: at least 24 hours before each experiment catheters were percutaneously placed in the pulmonary artery. Any other catheterizations that were required for infusion were done at this time. All studies were performed on awake, unrestrained sheep placed in portable stanchions with food and water ad libitum. Electronically calculated pulmonary artery pressures as well as heart rates were recorded at various intervals on a Gilson polygraph (Gilson Instruments, Middleton, WI). To ensure a stable baseline prior to the injection of test compounds, approximately 1 hour of baseline measurements were recorded.

C57BL/10 mice [5] = assay: Toxicity of lipid X in mice; assay type: in vivo, mouse
Experimental: To test for the toxicity of lipid X in mice, C57BL/10 mice were challenged with 750, 2000 or 5000 μg of lipid X intraperitoneally (12 mice) or with 750, 1500 or 3000 μg intravenously (7 mice).

[6] = tested on: experimental tumors in guinea pigs; conditions: cited from earlier work
[7] = Solution behaviour of lipid X; assay type: physicochemical
Experimental: as §1

macrophages = conditions: cited from earlier work
C57BL/10 mice [8] = assay: Protection of mice by lipid X against lethal endotoxemia; assay type: in vivo, mouse
Experimental: FIG. 4. […] Controls receiving no lipid X are shown at the left of each panel. The number of mice per group is either three or four, and is the sum of the dead and the living. The number of survivors is shown at the top of the panel. Each point represents the death of one mouse. When all individuals died the mean time of death is shown as a horizontal bar. […] Doses of lipid X were administered in 0.1 ml of physiological saline that had been titrated to pH 8 with Tris to dissolve the lipid.
as §3
Mice were allowed to rest for at least 7 days following their arrival and were sexually segregated and housed at 5 per cage with food and water ad libitum. […] No more than 0.1 ml of fluid was injected at a time. Just prior to injection, the mice were lightly anesthetized with ether. Following the injection, mice were observed every 0.5-6 hours and the time of death was recorded.
The lethal dose of E. coli endotoxin was determined both for the intravenous and of the intraperitoneal challenge.
Mice were given 750 μg of lipid X from 24 hours prior to 6 hours after endotoxin challenge with 1-2 LD100 doses.

[9] = tested on: macrophage protein kinase C; conditions: cited from earlier work
sheep [10] = conditions: cited from earlier work
[11] = previous work; dependent on being given prior to or very shortly after LPS challenge; cited from earlier work
sheep [12] = assay: Lethality and clinical toxicity of intravenous lipopolysaccharide in sheep; conditions: usually the result of disseminated intravascular coagulopathy
Experimental: as §2, §3

[13] = sheep, pretreatment with lipid X
[14] = lipid X by itself 40-1000 μg/kg

Question: For `CCCCCCCCCCCC(O)CC(=O)N[C@H]1[C@@H](OP(=O)(O)O)O[C@H](CO)[C@@H](O)[C@@H]1O` (stereo partly drawn) [N-monoacyl glucosamine 1-phosphate], which “biological activity after removal of the ester linked β-hydroxymyristoyl moiety” value ([1]; mild alkali treatment of lipid X) is on record?
Answer: The value was “biologically inert”.

Question: For `CCCCCCCCCCCC(O)CC(=O)N[C@H]1C(O)O[C@H](CO)[C@@H](O)[C@@H]1OC(=O)CC(O)CCCCCCCCCCC` (stereo partly drawn) [dephospho-X], which “biological activity after removal of the phosphate moiety” value ([1]; mild acid treatment of lipid X, may be due to inherent solubility of dephospho-X) is on record?
Answer: Its value is “reduces biological activity”.

Question: With `CCCCCCCCCCCC(O)CC(=O)N[C@H]1[C@@H](OP(=O)(O)O)O[C@H](CO)[C@@H](O)[C@@H]1OC(=O)CC(O)CCCCCCCCCCC` (stereo partly drawn) [lipid X, 2,3-diacylglucosamine 1-phosphate] as the molecule, how does the storage stability [2] read?
Answer: The storage stability was “many months without evidence of significant deterioration”.

Question: What about the “adverse complications of lipid X administration” value (sheep [3]) of the same molecule?
Answer: Its value is “no serious adverse complications”.

Question: What about the B cell mitogen (B cell) of the same molecule?
Answer: Its B cell mitogen is “B cell mitogen”.

Question: And the Survivors (sheep [4]; lipid X 50 μg/kg 1 hour prior to endotoxin, lipopolysaccharide 20 μg/kg)?
Answer: Its Survivors is 1/2.

Question: And the Survivors (sheep [4]; lipid X 100 μg/kg 15 min. prior to endotoxin, lipopolysaccharide 10 μg/kg)?
Answer: The Survivors was 3/3.

Question: What about the Survivors (sheep [4]; lipid X 100 μg/kg 1 hour prior to endotoxin, lipopolysaccharide 20 μg/kg) of the same molecule?
Answer: The Survivors was 4/4.

Question: What about the Survivors (sheep [4]; lipid X 200 μg/kg 1 hour prior to endotoxin, lipopolysaccharide 20 μg/kg) of the same molecule?
Answer: The Survivors was 3/3.

Question: What about the “survival of subsequent LPS challenge” value (sheep [4]; sheep receiving 100-200 μg/kg lipid X during the pretreatment period) of the same molecule?
Answer: Its value is “all the sheep receiving 100-200 μg/kg of lipid X during the pretreatment period survived”.

Question: What about the “excess of lipid X over LPS required to ensure survival” value (sheep [4]; sheep, on a weight basis) of the same molecule?
Answer: The value was 5-10 fold.

Question: What about the “effect on pulmonary hypertension or fever induced by LPS” value (sheep [4]; [13]) of the same molecule?
Answer: The value was “does not prevent pulmonary hypertension or fever”.

Question: What about the “effect on serious clinical symptoms (shortness of breath, weakness, diarrhea, etc.)” value (sheep [4]; [13]) of the same molecule?
Answer: Its value is “alleviates some of the serious clinical symptoms”.

Question: What about the “resistance to the lethal effects of gram-negative endotoxin” value (sheep [4]; [13]) of the same molecule?
Answer: Its value is “immediately resistant to the lethal effects”.

Question: And the “survival after lipid X challenge” value (C57BL/10 mice [5]; 750, 2000 or 5000 μg intraperitoneally (12 mice) or 750, 1500 or 3000 μg intravenously (7 mice))?
Answer: The value was “All these mice lived”.

Question: And the “toxicity of lipid X” value (C57BL/10 mice [5]; mice)?
Answer: Its value is “nontoxic in mice”.

Question: What about the “regression of experimental tumors” value [6] of the same molecule?
Answer: Its value is “capable of inducing regression of experimental tumors in guinea pigs”.

Question: And the “behaviour with divalent cations” value ([7]; Mg^++ and Ca^++)?
Answer: The value was “precipitate”.

Question: What about the “solution behaviour in Tris-EDTA” value ([7]; pH 8, stock solutions 1-10 mg/ml) of the same molecule?
Answer: Its value is “forms a clear viscous solution”.

Question: What about the solubility in water ([7]; water) of the same molecule?
Answer: The solubility in water was “limited solubility”.

Question: And the “macrophage activation with release of prostaglandin E2” value (macrophages)?
Answer: Its value is “capable of activating macrophages with release of protaglandin E2”.

Question: What about the “last death after challenge” value (C57BL/10 mice [8]; 750 μg lipid X intravenously, 250 or 500 μg endotoxin intravenously) of the same molecule?
Answer: The value was at most 5 days.

Question: And the “mortality of group receiving lipid X shortly after endotoxin challenge” value (C57BL/10 mice [8]; both challenge doses, versus the group on either side)?
Answer: The value was “higher mortality than the group on either side”.

Question: And the “onset and duration of protection against lipopolysaccharide” value (C57BL/10 mice [8]; compared with classical tolerance, which does not appear for many days)?
Answer: Its value is “immediate and wears off after several hours”.

Question: And the survival of mice (C57BL/10 mice [8]; lipid X (750 μg intravenously) from 1 hour prior to through 4 hours post LPS challenge, 250 μg endotoxin)?
Answer: The survival of mice was 81%.

Question: And the survival of mice (C57BL/10 mice [8]; lipid X from 6 hours prior to endotoxin challenge through 1 hour after LPS challenge, intravenous, printed 500 μg lipid X)?
Answer: The survival of mice was “Forty-one”.

Question: And the “prolongation of time to death” value (C57BL/10 mice [8]; lipid X intraperitoneally 2 hours before 1500 μg endotoxin (3 times LD100) intraperitoneally, data not shown)?
Answer: Its value is “four”.

Question: What about the time to death (C57BL/10 mice [8]; lipid X intraperitoneally 2 hours before 1500 μg endotoxin, about 20 hours without lipid X, data not shown) of the same molecule?
Answer: The time to death was about 80 h.

Question: And the “resistance to the lethal effects of gram-negative endotoxin” value (C57BL/10 mice [8]; mice, pretreatment with lipid X)?
Answer: The value was “immediately resistant to the lethal effects”.

Question: What about the “prevention of lethal endotoxicity when given after lipopolysaccharide” value (C57BL/10 mice [8]; mouse, lipid X given 4 hours after lipopolysaccharide) of the same molecule?
Answer: Its value is “appears to prevent lethal endotoxicity even when given 4 hours after lipopolysaccharide”.

Question: And the “activation of macrophage protein kinase C” value [9]?
Answer: The value was “can activate macrophage protein kinase C”.

Question: And the “duration of transient increase in pulmonary arterial pressure” value (sheep [10]; lipid X 40 μg/kg cumulative dose)?
Answer: Its value is 3 to 5 min.

Question: And the “duration of pulmonary hypertension” value (sheep [10]; lipid X 500-1000 μg/kg intravenously)?
Answer: The value was 5 to 10 min.

Question: What about the “duration of transient lethargy and shortness of breath” value (sheep [10]; lipid X alone) of the same molecule?
Answer: The value was 15 to 30 min.

Question: And the “marked illness or fever” value (sheep [10]; [14])?
Answer: Its value is “does not create marked illness or fever”.

Question: What about the “time for transient pulmonary hypertension and slight shortness of breath to subside” value (sheep [10]; [14]) of the same molecule?
Answer: Its value is 30 min.

Question: What about the “increased permeability of the pulmonary circulation” value (sheep [10]; lipid X, compared to endotoxin) of the same molecule?
Answer: Its value is “to a very mild degree compared to endotoxin”.

Question: And the “delay between injection and increase of pulmonary arterial pressure” value (sheep [10]; lipid X)?
Answer: The value was “no delay”.

Question: And the life-threatening pulmonary edema (sheep [10]; lipid X)?
Answer: Its life-threatening pulmonary edema is “does not develop”.

Question: And the terminal endotoxemia (sheep [10]; very high doses of lipid X)?
Answer: Its terminal endotoxemia is “fails to cause terminal endotoxemia”.

Question: For `C=CCN1CC[C@]23c4c5ccc(O)c4O[C@H]2C(=O)CC[C@@]3(O)[C@H]1C5` [naloxone], which “prevention of the complications of lipopolysaccharide injection” value [11] is on record?
Answer: Its value is “limited prevention of the complications”.

Question: For lipid A, which “time of death after injection (occasional)” value (sheep [12]) is on record?
Answer: The value was 1-2 weeks.
